For 20 molecules, IC50 results are on record in patent publication US9255100B2 (BAYER INTELLECTUAL PROPERTY GMBH, priority 2010, dated 2016).

SMILES strings stand for the structures. Where “and” joins values, the source holds several entries; their conditions need not be identical. Identical values can stand only once.

The target of this assay is T1, N-terminally GST-tagged human full length recombinant Mps-1 kinase (Homo sapiens, UniProt P33981).
T1 construct: N-terminally GST-tagged human full length recombinant Mps-1 kinase; purchased Invitrogen, Karslruhe, Germany PV4071
T1 sequence (P33981 1-857): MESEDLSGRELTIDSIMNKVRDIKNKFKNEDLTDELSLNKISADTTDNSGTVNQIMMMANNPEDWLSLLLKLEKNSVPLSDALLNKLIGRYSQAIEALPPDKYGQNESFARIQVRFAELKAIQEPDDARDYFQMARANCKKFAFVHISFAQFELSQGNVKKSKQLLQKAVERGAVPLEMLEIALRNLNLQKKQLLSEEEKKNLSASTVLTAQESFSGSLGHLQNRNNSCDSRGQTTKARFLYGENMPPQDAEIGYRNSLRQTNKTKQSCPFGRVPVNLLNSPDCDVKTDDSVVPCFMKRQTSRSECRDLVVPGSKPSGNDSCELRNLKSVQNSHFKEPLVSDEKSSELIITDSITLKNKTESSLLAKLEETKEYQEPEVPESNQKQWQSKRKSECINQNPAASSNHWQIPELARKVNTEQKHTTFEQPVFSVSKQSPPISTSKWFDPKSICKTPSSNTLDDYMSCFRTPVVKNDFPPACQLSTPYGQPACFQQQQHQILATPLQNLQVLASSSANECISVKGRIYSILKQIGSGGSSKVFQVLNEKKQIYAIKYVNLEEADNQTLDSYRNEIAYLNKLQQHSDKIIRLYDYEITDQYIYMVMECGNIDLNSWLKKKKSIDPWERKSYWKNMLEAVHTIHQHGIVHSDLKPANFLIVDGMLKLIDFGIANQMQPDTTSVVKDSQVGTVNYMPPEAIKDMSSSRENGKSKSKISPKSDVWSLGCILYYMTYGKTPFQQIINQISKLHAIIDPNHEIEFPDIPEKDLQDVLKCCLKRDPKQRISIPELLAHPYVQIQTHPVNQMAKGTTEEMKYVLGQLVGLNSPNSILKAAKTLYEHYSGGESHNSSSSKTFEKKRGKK
Nature of the assay: Mps-1 kinase assay (TR-FRET). The following applies: Mps1 IC50 [nM], 10 μM ATP, 1 μM peptide substrate, 60 min at 22° C. Type of assay: biochemical. The method in brief:
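GST-Mps-1 (full length, N-term tag) ~1 nM final, linear-range adjusted per lot; biotinylated peptide substrate. Detection: Eu-anti-pSer/Thr donor → SA-XLent acceptor TR-FRET, 1 h, 22° C. Inhibition of kinase activity.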
In general terms: TR-FRET usually uses a lanthanide donor and a delayed reading to cut background.
For orientation: IC50 means the point on the concentration scale where inhibition reaches its midpoint. For `Cc1cc(-c2cnc3c(NCCC(F)(F)F)cc(Nc4cccc(F)c4F)nn23)ccc1C(=O)NC1CC1` [Example 380, N-cyclopropyl-4-{6-[(2,3-difluorophenyl)amino]-8-[(3,3,3-trifluoropropyl)amino]imidazo[1,2-b]pyridazin-3-yl}-2-methylbenzamide], the IC50 stood at 0.1 nM.
On to `Cc1cc(-c2cnc3c(NCCC(F)(F)F)cc(Oc4cccc(OC(C)C)c4)nn23)ccc1C(=O)NC1CC1` [Example 381, N-cyclopropyl-2-methyl-4-{6-[3-(propan-2-yloxy)phenoxy]-8-[(3,3,3-trifluoropropyl)amino]imidazo[1,2-b]pyridazin-3-yl}benzamide], for which the half-maximal inhibitory concentration (IC50) is 0.6 nM.
On to `Cc1cc(Nc2cc(NCC(C)(C)O)c3ncc(-c4ccc(C(=O)NC5CC5)c(C)c4)n3n2)ccc1F` [Example 382, N-cyclopropyl-4-{6-[(4-fluoro-3-methylphenyl)amino]-8-[(2-hydroxy-2-methylpropyl)amino]imidazo[1,2-b]pyridazin-3-yl}-2-methylbenzamide], for which the half-maximal inhibitory concentration (IC50) amounted to 1.2 nM.
The result for `Cc1ccc(F)c(Nc2cc(NCC(C)(C)O)c3ncc(-c4ccc(C(=O)NC5CC5)c(C)c4)n3n2)c1` [Example 383, N-cyclopropyl-4-{6-[(2-fluoro-5-methylphenyl)amino]-8-[(2-hydroxy-2-methylpropyl)amino]imidazo[1,2-b]pyridazin-3-yl}-2-methylbenzamide] reads 0.3 nM.
With `Cc1cc(-c2cnc3c(NCC(C)(C)O)cc(Nc4ccccc4F)nn23)ccc1C(=O)NC1CC1` [Example 384, N-cyclopropyl-4-{6-[(2-fluorophenyl)amino]-8-[(2-hydroxy-2-methylpropyl)amino]imidazo[1,2-b]pyridazin-3-yl}-2-methylbenzamide], the IC50 turned out to be 0.4 nM.
The value for `Cc1cc(-c2cnc3c(NCC(C)(C)O)cc(Nc4cccc(C(C)C)c4)nn23)ccc1C(=O)NC1CC1` [Example 385, N-cyclopropyl-4-{8-[(2-hydroxy-2-methylpropyl)amino]-6-[(3-isopropylphenyl)amino]imidazo[1,2-b]pyridazin-3-yl}-2-methylbenzamide] was 0.9 nM; that for `Cc1cc(-c2cnc3c(NCC(C)(C)O)cc(Nc4ccc(CCO)cc4)nn23)ccc1C(=O)NC1CC1` [Example 386, N-cyclopropyl-4-(6-{[4-(2-hydroxyethyl)phenyl]amino}-8-[(2-hydroxy-2-methylpropyl)amino]imidazo[1,2-b]pyridazin-3-yl)-2-methylbenzamide] was 1.5 nM.
The value for `Cc1cc(-c2cnc3c(NCCC(F)(F)F)cc(Sc4cccc(F)c4C)nn23)ccc1C(=O)NC1CC1` [Example 387, N-cyclopropyl-4-{6-[(3-fluoro-2-methylphenyl)sulfanyl]-8-[(3,3,3-trifluoropropyl)amino]imidazo[1,2-b]pyridazin-3-yl}-2-methylbenzamide] was 0.3 nM; that for `COc1ccccc1Nc1cc(NCCC(F)(F)F)c2ncc(-c3ccc(C(=O)NC4CC4)c(C)c3)n2n1` [Example 388, N-cyclopropyl-4-{6-[(2-methoxyphenyl)amino]-8-[(3,3,3-trifluoropropyl)amino]imidazo[1,2-b]pyridazin-3-yl}-2-methylbenzamide] was 0.4 nM.
The value for `CNc1ccccc1Oc1cc(NCCC(F)(F)F)c2ncc(-c3ccc(C(=O)NC4CC4)c(C)c3)n2n1` [Example 389, N-cyclopropyl-2-methyl-4-{6-[2-(methylamino)phenoxy]-8-[(3,3,3-trifluoropropyl)amino]imidazo[1,2-b]pyridazin-3-yl}benzamide] was 0.1 nM.
On to `Cc1cc(-c2cnc3c(NCCC(F)(F)F)cc(Sc4ccc(Cl)cc4CO)nn23)ccc1C(=O)NC1CC1` [Example 392, 4-(6-{[4-chloro-2-(hydroxymethyl)phenyl]sulfanyl}-8-[(3,3,3-trifluoropropyl)amino]imidazo[1,2-b]pyridazin-3-yl)-N-cyclopropyl-2-methylbenzamide], for which the IC50 was 0.4 nM.
For the molecule `Cc1cc(-c2cnc3c(NCC(C)(C)O)cc(Sc4ccc(Cl)cc4CO)nn23)ccc1C(=O)NC1CC1` [Example 393, 4-(6-{[4-chloro-2-(hydroxymethyl)phenyl]sulfanyl}-8-[(2-hydroxy-2-methylpropyl)amino]imidazo[1,2-b]pyridazin-3-yl)-N-cyclopropyl-2-methylbenzamide], the 50% inhibitory concentration (IC50) was 2.3 nM.
Turning to `Cc1cc(F)cc(Nc2cc(NCC(C)(C)O)c3ncc(-c4ccc(C(=O)NC5CC5)c(C)c4)n3n2)c1` [Example 394, N-cyclopropyl-4-{6-[(3-fluoro-5-methylphenyl)amino]-8-[(2-hydroxy-2-methylpropyl)amino]imidazo[1,2-b]pyridazin-3-yl}-2-methylbenzamide], the IC50 was determined as 0.2 nM.
The result for `Cc1cc(-c2cnc3c(NCCC(F)(F)F)cc(Oc4ccccc4N)nn23)ccc1C(=O)NC1CC1` [Example 395, 4-{6-(2-aminophenoxy)-8-[(3,3,3-trifluoropropyl)amino]imidazo[1,2-b]pyridazin-3-yl}-N-cyclopropyl-2-methylbenzamide] reads 0.3 nM.
The result for `Cc1cc(-c2cnc3c(NCCC(F)(F)F)cc(Nc4ccc(F)cc4O)nn23)ccc1C(=O)NC1CC1` [Example 396, N-cyclopropyl-4-{6-[(4-fluoro-2-hydroxyphenyl)amino]-8-[(3,3,3-trifluoropropyl)amino]imidazo[1,2-b]pyridazin-3-yl}-2-methylbenzamide] reads 0.1 nM and 0.3 nM; that for `COc1cccc(Nc2cc(NCC(C)(C)O)c3ncc(-c4ccc(C(=O)NC5CC5)c(C)c4)n3n2)c1C` [Example 398, N-cyclopropyl-4-{8-[(2-hydroxy-2-methylpropyl)amino]-6-[(3-methoxy-2-methylphenyl)amino]imidazo[1,2-b]pyridazin-3-yl}-2-methylbenzamide], 0.4 nM; that for `Cc1cc(-c2cnc3c(NCCC(F)(F)F)cc(Nc4ccccc4O)nn23)ccc1C(=O)NC1CC1` [Example 399, N-cyclopropyl-4-{6-[(2-hydroxyphenyl)amino]-8-[(3,3,3-trifluoropropyl)amino]imidazo[1,2-b]pyridazin-3-yl}-2-methylbenzamide], 0.1 nM.
For the molecule `COc1cc(Nc2cc(NCC(C)(C)O)c3ncc(-c4ccc(C(=O)NC5CC5)c(C)c4)n3n2)ccc1F` [Example 400, N-cyclopropyl-4-{6-[(4-fluoro-3-methoxyphenyl)amino]-8-[(2-hydroxy-2-methylpropyl)amino]imidazo[1,2-b]pyridazin-3-yl}-2-methylbenzamide], the half-inhibitory concentration (IC50) amounted to 3.1 nM.
In the case of `Cc1cc(-c2cnc3c(NCC(C)(C)O)cc(Nc4ccc(Cl)c(F)c4)nn23)ccc1C(=O)NC1CC1` [Example 401, 4-{6-[(4-chloro-3-fluorophenyl)amino]-8-[(2-hydroxy-2-methylpropyl)amino]imidazo[1,2-b]pyridazin-3-yl}-N-cyclopropyl-2-methylbenzamide], the IC50 turned out to be 1 nM.
`COc1ccccc1Nc1cc(NCC(C)(C)O)c2ncc(-c3ccc(C(=O)NC4CC4)c(C)c3)n2n1` [Example 402, N-cyclopropyl-4-{8-[(2-hydroxy-2-methylpropyl)amino]-6-[(2-methoxyphenyl)amino]imidazo[1,2-b]pyridazin-3-yl}-2-methylbenzamide]: the IC50 was 3.4 nM.
